From US20190046627A1, “USE OF A GNP-LLO91-99 COMPLEX FOR THE TREATMENT AND PREVENTION OF CANCER” (FUNDACIÓN INSTITUTO DE INVESTIGACIÓN MARQUES DE VALDECILLA, priority 2016, published 2019)
Entries after “also recorded” stand apart in the source; their conditions may differ.

Key:
murine melanoma B16F10 [1] = experiment: Reduction of the size of the tumor in newborns (Example 6); type: in vivo; conditions: 9-day old Balb/c mice, s.c. B16F10 established 5 days, 50 μg/ml in the tumors for 5 days
Experimental: For the study of the reduction of the size of the tumor in newborns making use of different therapies and their comparison with that of the invention, 5×10^5 cells of murine melanoma B16F10 were inoculated in a subcutaneous manner in the interscapular area of 9-day old female mice of the Balb/c strain.
(§1) Following 5 days post-inoculation, 50 μg/ml of the following therapies were inoculated in the tumors for 5 days: LLO91-99 (only peptide from listeriolysin O of Listeria monocytogenes, LLO91-99), GNP (empty gluconanoparticles), GNP-LLO91-99 (gluconanoparticles synthesized with the peptide from listeriolysin O of Listeria monocytogenes, LLO91-99), GNP-GAPDH1-22 (nanoparticles synthesized with the peptide from glyceraldehyde-3-phosphate dehydrogenase of Listeria monocytogenes, GAPDH1-22). As a control, a vector previously used in therapy was also included, dendritic cells loaded with the LLO91-99 (1×10^5 DC-LLO91-99) peptide.
(§2) Following this treatment, the mice were sacrificed and the tumors recovered, measuring their size with a gauge.

murine melanoma B16F10 [2] = experiment: Reduction of the size of the tumor, subcutaneous murine melanoma in adult mice (Example 2); type: in vivo; conditions: adult C57BL/6 mice, s.c. B16F10 established 7 days, 50 μg/ml inoculated in the tumors for 5 days
Experimental: For the study of the reduction of the size of the tumor making use of different therapies and their comparison with that of the invention, 1×10^6 cells of murine melanoma B16F10 were inoculated in a subcutaneous manner in the left ventral flank of 8-12-week old female mice of the C57BL/6 strain.
as §1, with “After 7” for “Following 5”, “GAPDH1-22) or no particle (NT). Dendritic cells loaded with the LLO91-99 (1×10^6 DC-LLO91-99) peptide were also included as” for “GAPDH1-22). As”, “therapy.” for “therapy was also included, dendritic cells loaded with the LLO91-99 (1×10^5 DC-LLO91-99) peptide.”
as §2

murine melanoma B16OVA = experiment: Prevention of tumor growth, intraperitoneal melanoma after preventive treatment (Example 5); type: in vivo, mice; conditions: 50 μg/ml intraperitoneal 7 days before i.p. B16OVA, adult C57BL/6
Experimental: For the comparative study of the prevention of tumor growth in adults between the therapy of the invention and known anti-tumor therapies, the following therapies (50 μg/ml) were inoculated in female adults of the C57BL/6 strain in an intraperitoneal manner: LLO91-99 (only peptide from listeriolysin O of Listeria monocytogenes, LLO91-99), GNP (empty gluconanoparticles), GNP-LLO91-99 (gluconanoparticles synthesized with the peptide from listeriolysin O of Listeria monocytogenes, LLO91-99), GNP-GAPDH1-22 (nanoparticles synthesized with the peptide from glyceraldehyde-3-phosphate dehydrogenase of Listeria monocytogenes, GAPDH1-22) or saline (NT).
Following 7 days preventative post-treatment, the tumors were established following inoculation with 5×10^6 cells of murine melanoma B16OVA in an intraperitoneal manner. Following 7 days post-established of the tumor, the mice were sacrificed and the recovered tumors were measured by means of a gauge and the tumors were analyzed by means of immunohistochemical staining. The results of the reduction of the tumor growth and their intraperitoneal position are shown in FIG. 4A and FIG. 4B and the results of the analysis of the immunohistochemical staining in FIG. 4C.

Substance: H-Gly-Tyr-Lys-Asp-Gly-Asn-Glu-Tyr-Ile-OH (H-GYKDGNEYI-OH) [LLO91-99, only peptide from listeriolysin O of Listeria monocytogenes, LLO91-99]
- therapeutic effect on the melanoma in newborns (in words) (murine melanoma B16F10 [1]): failed to achieve any therapeutic effect
- therapeutic effect on the melanoma (in words) (murine melanoma B16F10 [2]): do not achieve any therapeutic effect; also recorded: failed to achieve any therapeutic effect
- preventative / therapeutic effect on the melanoma (in words) (murine melanoma B16OVA): failed to achieve any therapeutic effect
